Legend:
murine taste tissue [1] = experiment: Rapid time course quench-flow IP3 generation in murine taste tissue; format: biochemical, mouse; settings: addition to murine taste tissue homogenate supernatant
Method: To confirm that gustducin γ subunit does indeed function in taste transduction rapid time course quench-flow experiments were carried out essentially as described in Tarelius et al., pp. 193–202 in Spielman et al., Eds., Experimental Cell Biology of Taste and Olfaction. Current Techniques & Protocols, CRC Press, Boca Raton (1995). […] Furthermore, it has been shown that the denatonium response depends upon a novel phospholipase C (PLC) β2 isotype specifically expressed in taste receptor cells.
Tongues were excised from 6 to 8 week old female SWR mice, and lingual papillae removed. One vallate and two foliate papillae and nongustatory control tissue from the dorsal eminence of the peeled epithelium were placed in ice-cold MOPS buffer pH 6.9 (50 mM MOPS, 100 mM NaCl, 0.081 mM CaCl2 and 2.5 mM MgCl2), containing 10 mM EGTA, 1 mM DTT, and a protease inhibitor cocktail [1 mg/ml, specific for serine, cysteine, aspartic and metallo-proteinases (Sigma)]. Tissue collected from twenty-five tongues was homogenized in MOPS-EGTA buffer pH 6.9, without the enzyme inhibitors, and centrifuged (1000×g for 20 min. at 4° C.). The recovered supernatant (at a protein concentration of about 30 μg/ml), was used for rapid kinetic experiments. […]

murine taste tissue [2] = settings: shown previously; cited from earlier work
gustducin α subunit = experiment: Trypsin sensitivity assay of gustducin α subunit activation by denatonium-stimulated taste membranes; format: biochemical
Method: To confirm this idea, yet another trypsin sensitivity assay was utilized.
Five μl aliquots of in vitro translated gustducin α subunit were incubated with 5 μg of purified taste membranes or control non-taste membranes, 0.1 mM GDP, 1 μM GTPγS, with or without 5 mM of the bitter compound denatonium, plus a 10 μl aliquot of cotranslated β1/gustducin γ subunit or β2/γ2 dimer, or 10 μl rabbit reticulocyte lysate (the minus βγ control) for 1 hour at 30° C., followed by digestion with trypsin as described in Ming et al., Proc. Natl. Acad. Sci. USA, 95: 8933–8938 (1998).

[3] = taste receptor-containing membranes stimulated by 5 mM denatonium

| Compound | generation of IP3 relative to basal level (murine taste tissue [1]) | generation of IP3 in control non-taste tissue (murine taste tissue [2]) | enhancement of activation of gustducin α subunit (gustducin α subunit; control non-taste membranes) | enhancement of activation of gustducin α subunit (gustducin α subunit; [3]) |
| --- | --- | --- | --- | --- |
| CC[N+](CC)(CC(=O)Nc1c(C)cccc1C)Cc1ccccc1 [denatonium benzoate] | slightly more than twice the basal level | not in control non-taste tissue |  |  |
| CC(=O)OC[C@H]1O[C@@](COC(C)=O)(O[C@H]2O[C@H](COC(C)=O)[C@@H](OC(C)=O)[C@H](OC(C)=O)[C@H]2OC(C)=O)[C@@H](OC(C)=O)[C@@H]1OC(C)=O [sucrose octa-acetate] |  | not in control non-taste tissue |  |  |
| β1/gustducin γ subunit: cotranslated β1/gustducin γ subunit dimer |  |  | did not enhance activation | enhanced activation |
| β2/γ2: cotranslated β2/γ2 dimer [reference compound] |  |  |  | did not enhance activation |

Reference: patent publication US7314716B2, “Gustducin γ subunit materials and methods” (Mount Sinai School of Medicine, priority 1999, dated 2008)
